Tests used:
Test in all cases: relative viability (nuclei count vs DMSO), 5 days (fraction); higher = more cells survive
[1] = compound: CN[C@@H]1C[C@H]2O[C@@](C)([C@@H]1OC)n1c3ccccc3c3c4c(c5c6ccccc6n2c5c31)C(=O)NC4 [Staurosporine] + O=C(CCCCCCC(=O)Nc1ccccc1)NO [Vorinostat] (partner 1 µM)
How it was run: (§1)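 Dosing by pin tool came one day after lung cancer cell lines were seeded in 1536-well plates, using either one drug or a fixed anchor-drug dose plus five library-drug doses (not always all listed) in √10 steps. After 5 days, nuclei were counted on 4× images. Relative viability is treated-well nuclei count divided by vehicle-well nuclei count, and values are medians of duplicate plates.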

Sulindac + Vorinostat = compound: CC1=C(CC(=O)O)c2cc(F)ccc2/C1=C\c1ccc([S+](C)[O-])cc1 [Sulindac] + O=C(CCCCCCC(=O)Nc1ccccc1)NO [Vorinostat] (partner 1 µM)
How it was run: as §1

Sulindac + Olaparib = compound: CC1=C(CC(=O)O)c2cc(F)ccc2/C1=C\c1ccc([S+](C)[O-])cc1 [Sulindac] + O=C(c1cc(Cc2n[nH]c(=O)c3ccccc23)ccc1F)N1CCN(C(=O)C2CC2)CC1 [Olaparib] (partner 8 µM)
How it was run: as §1

Sulindac + AZD7762 = compound: CC1=C(CC(=O)O)c2cc(F)ccc2/C1=C\c1ccc([S+](C)[O-])cc1 [Sulindac] + NC(=O)Nc1cc(-c2cccc(F)c2)sc1C(=O)N[C@H]1CCCNC1 [AZD7762] (partner 0.2 µM)
How it was run: as §1

EPLC-272H
relative viability ([1]; first compound 0.005 µM): 0.216
relative viability ([1]; first compound 0.01581 µM): 0.141
relative viability ([1]; first compound 0.05 µM): 0.0826
relative viability ([1]; first compound 0.1581 µM): 0.0904
relative viability ([1]; first compound 0.5 µM): 0.0549
relative viability (Sulindac + Vorinostat; first compound 0.08 µM): 0.465
relative viability (Sulindac + Vorinostat; first compound 0.253 µM): 0.341
relative viability (Sulindac + Vorinostat; first compound 0.8 µM): 0.68
relative viability (Sulindac + Vorinostat; first compound 2.53 µM): 0.339
relative viability (Sulindac + Vorinostat; first compound 8 µM): 0.424
relative viability (Sulindac + Olaparib; first compound 0.08 µM): 0.828
relative viability (Sulindac + Olaparib; first compound 0.253 µM): 0.852
relative viability (Sulindac + Olaparib; first compound 0.8 µM): 0.72
relative viability (Sulindac + Olaparib; first compound 2.53 µM): 0.639
relative viability (Sulindac + Olaparib; first compound 8 µM): 0.727
relative viability (Sulindac + AZD7762; first compound 0.08 µM): 0.432
relative viability (Sulindac + AZD7762; first compound 0.8 µM): 0.53
relative viability (Sulindac + AZD7762; first compound 2.53 µM): 0.155
relative viability (Sulindac + AZD7762; first compound 8 µM): 0.263

A-427
relative viability ([1]; first compound 0.005 µM): 0.572
relative viability ([1]; first compound 0.01581 µM): 0.333
relative viability ([1]; first compound 0.05 µM): 0.43
relative viability ([1]; first compound 0.1581 µM): 0.161
relative viability ([1]; first compound 0.5 µM): 0.152
relative viability (Sulindac + Vorinostat; first compound 0.08 µM): 0.829
relative viability (Sulindac + Vorinostat; first compound 0.253 µM): 0.84
relative viability (Sulindac + Vorinostat; first compound 0.8 µM): 0.953
relative viability (Sulindac + Vorinostat; first compound 2.53 µM): 0.84
relative viability (Sulindac + Vorinostat; first compound 8 µM): 0.995
relative viability (Sulindac + Olaparib; first compound 0.08 µM): 0.74
relative viability (Sulindac + Olaparib; first compound 0.253 µM): 0.787
relative viability (Sulindac + Olaparib; first compound 0.8 µM): 0.8
relative viability (Sulindac + Olaparib; first compound 2.53 µM): 0.742
relative viability (Sulindac + Olaparib; first compound 8 µM): 0.821
relative viability (Sulindac + AZD7762; first compound 0.08 µM): 0.742
relative viability (Sulindac + AZD7762; first compound 0.253 µM): 0.692
relative viability (Sulindac + AZD7762; first compound 0.8 µM): 1.01
relative viability (Sulindac + AZD7762; first compound 2.53 µM): 0.727
relative viability (Sulindac + AZD7762; first compound 8 µM): 0.808

NCI-H661
relative viability ([1]; first compound 0.005 µM): 0.854
relative viability ([1]; first compound 0.01581 µM): 0.695
relative viability ([1]; first compound 0.05 µM): 0.523
relative viability ([1]; first compound 0.1581 µM): 0.239
relative viability ([1]; first compound 0.5 µM): 0.179
relative viability (Sulindac + Vorinostat; first compound 0.08 µM): 0.936
relative viability (Sulindac + Vorinostat; first compound 0.253 µM): 0.812
relative viability (Sulindac + Vorinostat; first compound 0.8 µM): 0.693
relative viability (Sulindac + Vorinostat; first compound 2.53 µM): 0.814
relative viability (Sulindac + Vorinostat; first compound 8 µM): 0.852
relative viability (Sulindac + Olaparib; first compound 0.08 µM): 0.971
relative viability (Sulindac + Olaparib; first compound 0.253 µM): 0.789
relative viability (Sulindac + Olaparib; first compound 0.8 µM): 0.59
relative viability (Sulindac + Olaparib; first compound 2.53 µM): 0.742
relative viability (Sulindac + Olaparib; first compound 8 µM): 0.836

NCI-H1993
relative viability ([1]; first compound 0.005 µM): 0.588
relative viability ([1]; first compound 0.01581 µM): 0.275
relative viability ([1]; first compound 0.05 µM): 0.475
relative viability ([1]; first compound 0.1581 µM): 0.344
relative viability ([1]; first compound 0.5 µM): 0.232
relative viability (Sulindac + Vorinostat; first compound 0.08 µM): 0.861
relative viability (Sulindac + Vorinostat; first compound 0.253 µM): 0.668
relative viability (Sulindac + Vorinostat; first compound 0.8 µM): 0.663
relative viability (Sulindac + Vorinostat; first compound 2.53 µM): 0.779
relative viability (Sulindac + Vorinostat; first compound 8 µM): 0.764
relative viability (Sulindac + Olaparib; first compound 0.08 µM): 1.03
relative viability (Sulindac + Olaparib; first compound 0.253 µM): 1.11
relative viability (Sulindac + Olaparib; first compound 0.8 µM): 0.895
relative viability (Sulindac + Olaparib; first compound 2.53 µM): 1.05
relative viability (Sulindac + Olaparib; first compound 8 µM): 1.13
relative viability (Sulindac + AZD7762; first compound 0.08 µM): 0.717
relative viability (Sulindac + AZD7762; first compound 0.253 µM): 0.854
relative viability (Sulindac + AZD7762; first compound 0.8 µM): 0.606
relative viability (Sulindac + AZD7762; first compound 2.53 µM): 0.695
relative viability (Sulindac + AZD7762; first compound 8 µM): 0.854

NCI-H358
relative viability ([1]; first compound 0.01581 µM): 0.165
relative viability ([1]; first compound 0.05 µM): 0.0628
relative viability ([1]; first compound 0.1581 µM): 0.0625
relative viability ([1]; first compound 0.5 µM): 0.0709
relative viability (Sulindac + Vorinostat; first compound 0.08 µM): 0.842
relative viability (Sulindac + Vorinostat; first compound 0.253 µM): 0.722
relative viability (Sulindac + Vorinostat; first compound 0.8 µM): 0.601
relative viability (Sulindac + Vorinostat; first compound 2.53 µM): 0.669
relative viability (Sulindac + Vorinostat; first compound 8 µM): 0.897
relative viability (Sulindac + Olaparib; first compound 0.08 µM): 0.809
relative viability (Sulindac + Olaparib; first compound 0.253 µM): 0.667
relative viability (Sulindac + Olaparib; first compound 0.8 µM): 0.526
relative viability (Sulindac + Olaparib; first compound 2.53 µM): 0.573
relative viability (Sulindac + Olaparib; first compound 8 µM): 0.62
relative viability (Sulindac + AZD7762; first compound 0.08 µM): 0.45
relative viability (Sulindac + AZD7762; first compound 0.253 µM): 0.517
relative viability (Sulindac + AZD7762; first compound 2.53 µM): 0.427
relative viability (Sulindac + AZD7762; first compound 8 µM): 0.651

SK-LU-1
relative viability ([1]; first compound 0.005 µM): 0.265
relative viability ([1]; first compound 0.01581 µM): 0.206
relative viability ([1]; first compound 0.05 µM): 0.179
relative viability ([1]; first compound 0.1581 µM): 0.164
relative viability ([1]; first compound 0.5 µM): 0.148
relative viability (Sulindac + Vorinostat; first compound 0.08 µM): 0.877
relative viability (Sulindac + Vorinostat; first compound 0.253 µM): 0.901
relative viability (Sulindac + Vorinostat; first compound 0.8 µM): 0.74
relative viability (Sulindac + Vorinostat; first compound 2.53 µM): 0.722
relative viability (Sulindac + Vorinostat; first compound 8 µM): 0.874
relative viability (Sulindac + Olaparib; first compound 0.08 µM): 0.498
relative viability (Sulindac + Olaparib; first compound 0.253 µM): 0.525
relative viability (Sulindac + Olaparib; first compound 0.8 µM): 0.446
relative viability (Sulindac + Olaparib; first compound 2.53 µM): 0.407
relative viability (Sulindac + Olaparib; first compound 8 µM): 0.536

COR-L 105
relative viability ([1]; first compound 0.005 µM): 0.69
relative viability ([1]; first compound 0.01581 µM): 0.289
relative viability ([1]; first compound 0.05 µM): 0.228
relative viability ([1]; first compound 0.1581 µM): 0.333
relative viability ([1]; first compound 0.5 µM): 0.224
relative viability (Sulindac + Vorinostat; first compound 0.08 µM): 0.95
relative viability (Sulindac + Vorinostat; first compound 0.253 µM): 0.982
relative viability (Sulindac + Vorinostat; first compound 0.8 µM): 0.856
relative viability (Sulindac + Vorinostat; first compound 2.53 µM): 0.77
relative viability (Sulindac + Vorinostat; first compound 8 µM): 0.967
relative viability (Sulindac + Olaparib; first compound 0.08 µM): 0.645
relative viability (Sulindac + Olaparib; first compound 0.253 µM): 0.61
relative viability (Sulindac + Olaparib; first compound 0.8 µM): 0.692
relative viability (Sulindac + Olaparib; first compound 2.53 µM): 0.717
relative viability (Sulindac + Olaparib; first compound 8 µM): 0.72

NCI-H2009
relative viability ([1]; first compound 0.005 µM): 0.576
relative viability ([1]; first compound 0.01581 µM): 0.185
relative viability ([1]; first compound 0.05 µM): 0.166
relative viability ([1]; first compound 0.1581 µM): 0.109
relative viability ([1]; first compound 0.5 µM): 0.0558
relative viability (Sulindac + Vorinostat; first compound 0.08 µM): 0.84
relative viability (Sulindac + Vorinostat; first compound 0.253 µM): 0.84
relative viability (Sulindac + Vorinostat; first compound 0.8 µM): 0.748
relative viability (Sulindac + Vorinostat; first compound 2.53 µM): 0.649
relative viability (Sulindac + Vorinostat; first compound 8 µM): 0.81
relative viability (Sulindac + Olaparib; first compound 0.08 µM): 0.893
relative viability (Sulindac + Olaparib; first compound 0.253 µM): 0.716
relative viability (Sulindac + Olaparib; first compound 0.8 µM): 0.679
relative viability (Sulindac + Olaparib; first compound 2.53 µM): 0.666
relative viability (Sulindac + Olaparib; first compound 8 µM): 0.754

From the supplement of paper PMC10307832
